Measured values reported in the OligoGym collection.
These antisense oligonucleotides have a phosphorothioate backbone; sugars and methylation of C are not fully specified.

Each sequence was assayed against AKT3. Conditions: ASO.
Note: test concentration or dose not given here.

Going from CTCCACCAAGGCGTTTAT to ATATATTCTCCCCTCTTC, the remaining target (mRNA or protein) (fraction of control) rises from 0.12 to ≥ 1.

First: GTCCTGGTTGTAGAAAGG
Second: TTGGACTACAATTCATTC
The remaining target (mRNA or protein) (fraction of control) of the first is lower: 0.58 for the first, 0.72 for the second.

ATTCTCTCCTCTTCTTGC and AGCCTGGATAGCTTCTGT cannot be ordered by remaining target (mRNA or protein) (fraction of control): ≥ 1 for the first, ≥ 1 for the second.

First: TCTGGTCCTCCACCAAGG
Second: AACCTCCCACACATCATT
The remaining target (mRNA or protein) (fraction of control) of the first is higher: 0.26 for the first, 0.22 for the second.

First: TCATACATGACAACCCCT
Second: TTCCCTTTCCTCTGGAGT
The remaining target (mRNA or protein) (fraction of control) of the first is lower: 0.13 for the first, 0.65 for the second.

First: GTAATAGTCTGAGCTGTA
Second: CTTTTGCGTCATCTGGTC
The remaining target (mRNA or protein) (fraction of control) of the first is lower: 0.88 for the first, ≥ 1 for the second.

First: ACAATTCATTCTCTCCTC
Second: GTCTGCTACAGCCTGGAT
The remaining target (mRNA or protein) (fraction of control) of the first is higher: ≥ 1 for the first, 0.92 for the second.

Compared with TGTCTCATAATTTCTTTT, GCCAGTTTACTCCAGAGA is lower in remaining target (mRNA or protein) (fraction of control): ≥ 1 for the first, 0.44 for the second.

GCGTTTATTTGGATCCTT and GCCTCTGCAGTCTGTCTG cannot be ordered by remaining target (mRNA or protein) (fraction of control): ≥ 1 for the first, ≥ 1 for the second.

Going from AATGATTTTGCATCTGAA to AGTCTACTGCTCGGCCAT, the remaining target (mRNA or protein) (fraction of control) falls from 0.94 to 0.21.

First: TTTGCCACTGAAAAGTTG
Second: CTAGGCCCCACCAGTCTA
The remaining target (mRNA or protein) (fraction of control) of the first is higher: ≥ 1 for the first, 0.17 for the second.

Compared with TCTTCTTGCCTCTGCAGT, TGTAGAAAGGTAACCTCC is lower in remaining target (mRNA or protein) (fraction of control): ≥ 1 for the first, 0.82 for the second.

First: TTCCATTAATATTAATTC
Second: TCCCCTCTTCTGAACCCA
The remaining target (mRNA or protein) (fraction of control) of the first is higher: ≥ 1 for the first, 0.55 for the second.

Compared with TAGTATCTGTCTCAGATG, TAATTTCTTTTGCGTCAT is higher in remaining target (mRNA or protein) (fraction of control): 0.7 for the first, ≥ 1 for the second.

AATCCACATCTTGAGGTT and ATTATCAATTTGTGAAGT cannot be ordered by remaining target (mRNA or protein) (fraction of control): ≥ 1 for the first, ≥ 1 for the second.

Compared with ATTTGGATCCTTTATCAA, TTTGCATCTGAAGAGAGT is lower in remaining target (mRNA or protein) (fraction of control): ≥ 1 for the first, 0.77 for the second.

First: AAGGTAAATCCACATCTT
Second: TCATTAACTGGCATTTTG
The remaining target (mRNA or protein) (fraction of control) of the first is lower: 0.66 for the first, ≥ 1 for the second.

Going from GTTGTAGAGGCATCCATC to CCCACACATCATTTCATA, the remaining target (mRNA or protein) (fraction of control) falls from ≥ 1 to 0.25.

First: AGCTTCTGTCCATTCTTC
Second: TACTCCAGAGAAGAAACT
The remaining target (mRNA or protein) (fraction of control) of the first is higher: ≥ 1 for the first, 0.85 for the second.

First: CTATGAATGAGCCATCTG
Second: TTTCCTCTGGAGTATCTA
The remaining target (mRNA or protein) (fraction of control) of the first is lower: 0.99 for the first, ≥ 1 for the second.

First: GGAAGTATCTTGGCCTCC
Second: GTCTCAGATGTTACTTGA
The remaining target (mRNA or protein) (fraction of control) of the first is higher: ≥ 1 for the first, 0.71 for the second.

First: ATCAAGAGCCCTGAAAGC
Second: ACTGAAAAGTTGTTGAGG
The remaining target (mRNA or protein) (fraction of control) of the first is lower: 0.29 for the first, ≥ 1 for the second.

AACTGTGTCTCATAATTT and GAGACATCTGATTATAAA cannot be ordered by remaining target (mRNA or protein) (fraction of control): ≥ 1 for the first, ≥ 1 for the second.

Going from TGTTCTCTCTATAACAGT to ATTCTTCATCAAAATATC, the remaining target (mRNA or protein) (fraction of control) rises from 0.94 to ≥ 1.

CCATCTGTCTTCAAAAGG and GGAGTATCTACATGAAAT cannot be ordered by remaining target (mRNA or protein) (fraction of control): ≥ 1 for the first, ≥ 1 for the second.

TCATTTCATACATGACAA and GATTATAAATGTGTTTGG cannot be ordered by remaining target (mRNA or protein) (fraction of control): ≥ 1 for the first, ≥ 1 for the second.

First: AAAGGTAACCTCCCACAC
Second: GAGGAAATTTAATGTCTT
The remaining target (mRNA or protein) (fraction of control) of the first is lower: 0.19 for the first, ≥ 1 for the second.

CATCTTGAGGTTTCTCTT and TTTGTGAAGTTGGACTAC cannot be ordered by remaining target (mRNA or protein) (fraction of control): ≥ 1 for the first, ≥ 1 for the second.

GTAGTCCACTGGAGACAT and TGTTCGAGGAAATTTAAT cannot be ordered by remaining target (mRNA or protein) (fraction of control): ≥ 1 for the first, ≥ 1 for the second.

CTGAAGAGAGTGTTCGAG and TCTATAACAGTAGTCCAC cannot be ordered by remaining target (mRNA or protein) (fraction of control): ≥ 1 for the first, ≥ 1 for the second.

Going from TTGGCTTTGGTCGTTCTG to TCTCATGGTCCTGGTTGT, the remaining target (mRNA or protein) (fraction of control) falls from ≥ 1 to 0.57.

Going from AAGTTTCTCATGGTCCTG to CAACCCCTAGGCCCCACC, the remaining target (mRNA or protein) (fraction of control) falls from 0.43 to 0.16.

TTGGTCGTTCTGTTTTCA and AACCCAACCTTCTTTCAC cannot be ordered by remaining target (mRNA or protein) (fraction of control): ≥ 1 for the first, ≥ 1 for the second.

First: GCGTCATCTGGTCCTCCA
Second: CTACATGAAATGTTCTCT
The remaining target (mRNA or protein) (fraction of control) of the first is lower: 0.26 for the first, ≥ 1 for the second.

Compared with TCTTCCTCTCCTATATTA, CTCTTCTAAACCCAACCT is lower in remaining target (mRNA or protein) (fraction of control): ≥ 1 for the first, 0.79 for the second.

Compared with CTGCTCGGCCATAGTCAT, AAATGTGTTTGGCTTTGG is higher in remaining target (mRNA or protein) (fraction of control): 0.19 for the first, ≥ 1 for the second.

Compared with TGTCCATTCTTCCCTTTC, GATCCTTTATCAAGAGCC is lower in remaining target (mRNA or protein) (fraction of control): ≥ 1 for the first, 0.4 for the second.

AGAGAAGAAACTGTGTCT and CTGTTTTCATTAACTGGC cannot be ordered by remaining target (mRNA or protein) (fraction of control): ≥ 1 for the first, ≥ 1 for the second.

Going from CTCTTTATATCCTATGAA to GCCCTGAAAGCAATGATT, the remaining target (mRNA or protein) (fraction of control) falls from ≥ 1 to 0.34.

First: ATATACATCTTGCCAGTT
Second: GGTTTAAGAGGAGGTACA
The remaining target (mRNA or protein) (fraction of control) of the first is lower: 0.87 for the first, ≥ 1 for the second.

Each sequence was assayed against E2F1. Conditions: ASO.

First: GAACTCCTCAGGGAGGAGGC
Second: GATTCTGGGAGCAGGCACTG
The remaining target (mRNA or protein) (fraction of control) of the first is lower: 0.59 for the first, 0.79 for the second.

Compared with CACCTTTTCCTGGATGGCGG, CGATCGGGCCTTGTTTGCTC is higher in remaining target (mRNA or protein) (fraction of control): 0.47 for the first, 0.72 for the second.

First: CTCCCTCACTTTCCCAATAA
Second: AGGTCTCTGATGCCCTCGCC
The remaining target (mRNA or protein) (fraction of control) of the first is higher: 0.71 for the first, 0.53 for the second.

Going from AAGTCCCGGCCACGGAATTC to AAGCCCTGTCAGAAATCCAG, the remaining target (mRNA or protein) (fraction of control) falls from 0.87 to 0.58.

Compared with AGAAGTCCTCCCGCACATGC, CGAGCAGGGCCTCCAGCGCC is higher in remaining target (mRNA or protein) (fraction of control): 0.51 for the first, 0.9 for the second.

Going from GGTCCAGCCTCCGCTTCACC to GCTCCAGGCTGAGTAGAGAC, the remaining target (mRNA or protein) (fraction of control) rises from 0.36 to 0.73.

Going from CGCGGCGGAGATGATGACGA to AGGAAGCGCTTGGTGGTCAG, the remaining target (mRNA or protein) (fraction of control) falls from ≥ 1 to 0.72.

Compared with ACCTCGGCAGCCCAGTTCAG, GACCACAGGGTCTGGGCTGG is lower in remaining target (mRNA or protein) (fraction of control): ≥ 1 for the first, 0.62 for the second.

Compared with CCTCGGCGAGGGCTCGATCC, TATTAAAACCAAAGCAGGAG is lower in remaining target (mRNA or protein) (fraction of control): 0.8 for the first, 0.69 for the second.

Going from CAGCTGCTGCTCGCTCTCCT to GGCTTGCTCAGCCTCCTAGC, the remaining target (mRNA or protein) (fraction of control) falls from 0.63 to 0.17.

Compared with ACACACACATGCTCACACAC, GGCTGCCCATCCGGGACAAC is lower in remaining target (mRNA or protein) (fraction of control): 0.56 for the first, 0.53 for the second.

Going from ACCTACGGTCTCCTCAGGGC to GGGAGATGATGGTGGTGGTG, the remaining target (mRNA or protein) (fraction of control) rises from 0.21 to ≥ 1.

Compared with GCCTTGTGGGACCCCACGAG, CTGCAATGCTACGAAGGTCC is lower in remaining target (mRNA or protein) (fraction of control): 0.83 for the first, 0.26 for the second.

First: TGGAGAGGGCCCACCCCACC
Second: ACACCACACAGACTCCTTCC
The remaining target (mRNA or protein) (fraction of control) of the first is higher: 0.62 for the first, 0.6 for the second.

Compared with CACCCAGGCCTCAGTTCCTT, GCCAGGCGCTGGCTGTCAGT is lower in remaining target (mRNA or protein) (fraction of control): 0.92 for the first, 0.69 for the second.

Going from CCACTCACCTCTCCCATCTC to GAGTCGGCCGCCACCAGCGG, the remaining target (mRNA or protein) (fraction of control) falls from 0.72 to 0.27.

Compared with AAGTGGTAGTCGAGGGCCTC, AAGCCTCCCCACCTGGCCTG is lower in remaining target (mRNA or protein) (fraction of control): 0.77 for the first, 0.28 for the second.

Compared with GGACTTCTTGGCAATGAGCT, GCCCACTGCTCTCGGCCAGG is lower in remaining target (mRNA or protein) (fraction of control): 0.65 for the first, 0.4 for the second.

Going from TAGCCAGACCCCAGAGCTAG to GGCCATGACGCTCACGGCCC, the remaining target (mRNA or protein) (fraction of control) rises from 0.46 to 0.76.

First: GGCCGCGGCGCACTGGGTGT
Second: GCGGCCCGGGTGACAGGCGG
The remaining target (mRNA or protein) (fraction of control) of the first is higher: 0.79 for the first, 0.32 for the second.

First: CGGCGGGCGGCCGAGCGCGG
Second: TGGCAGAGTCAGTGGCCCTG
The remaining target (mRNA or protein) (fraction of control) of the first is lower: 0.83 for the first, 0.94 for the second.

First: AACCTTTAAGACAGAAGTGC
Second: GTGTGGGTGTAGGCTGCATG
The remaining target (mRNA or protein) (fraction of control) of the first is lower: 0.74 for the first, 0.76 for the second.

In the case of CGCAGCTGCGTAGTACAGAT, the remaining target (mRNA or protein) (fraction of control) is reported as ≥ 1.

These sequences were tested against TRADD. Conditions: ASO.

Going from GTCCAGCGAGGACTCCAC to CTGTTTTACTTCACTGCA, the remaining target (mRNA or protein) (fraction of control) rises from 0.36 to ≥ 1.

First: AGTGCTGGGCGAGCGCGG
Second: CTCACCTCCTGGCCGCCT
The remaining target (mRNA or protein) (fraction of control) of the first is higher: ≥ 1 for the first, 0.76 for the second.

Compared with TCTGTTGGTCCTTCAGGC, GAGGACTCCACAAACAGG is lower in remaining target (mRNA or protein) (fraction of control): ≥ 1 for the first, 0.93 for the second.

Compared with TCAGCCAGTTCTTCATCC, TCACTACAGGCTGACCCT is lower in remaining target (mRNA or protein) (fraction of control): ≥ 1 for the first, 0.74 for the second.

Compared with CAGCGCCCGGCAGCCTCG, GTCCTTCAGGCTCAGCGG is lower in remaining target (mRNA or protein) (fraction of control): ≥ 1 for the first, 0.75 for the second.

First: GCGTAGGCATCCGACAGG
Second: GCTGCTGGGCTAGGATGC
The remaining target (mRNA or protein) (fraction of control) of the first is higher: 0.97 for the first, 0.84 for the second.

Going from CGGTCGGGCTGCTGGGCT to CATTTGAGACCCACAGAG, the remaining target (mRNA or protein) (fraction of control) falls from ≥ 1 to 0.83.
